The values below come from PMC12405480, “Endogenous ligands of bovine FFAR2/GPR43 display distinct pharmacological properties” (Frontiers in Cell and Developmental Biology, 2025).

One assay has as its target T1, bFFAR2 (bovine FFAR2/GPR43) (Bos taurus, UniProt A0ACM8QIU6).
T1 construct: full-length synthetic cDNA, N-terminal FLAG tag; transiently expressed in HEK293A cells
T1 sequence (A0ACM8QIU6 1-329): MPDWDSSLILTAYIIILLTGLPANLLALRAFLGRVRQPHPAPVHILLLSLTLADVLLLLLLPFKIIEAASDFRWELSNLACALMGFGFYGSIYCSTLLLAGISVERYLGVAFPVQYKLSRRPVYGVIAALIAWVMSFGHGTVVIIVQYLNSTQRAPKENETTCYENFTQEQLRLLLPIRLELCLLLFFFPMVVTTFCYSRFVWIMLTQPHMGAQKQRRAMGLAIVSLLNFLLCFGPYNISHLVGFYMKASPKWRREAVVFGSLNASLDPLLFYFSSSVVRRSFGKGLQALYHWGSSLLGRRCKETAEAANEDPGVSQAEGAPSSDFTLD
The assay is described as follows: BRET, mini-Gαi recruitment to bFFAR2-Rluc8, HEK293A. Format: cell-based.
Settings: not given
An excerpt:
BRET, mini-Gαi recruitment to bFFAR2-Rluc8, HEK293A on bFFAR2 (bovine FFAR2/GPR43)
Usually EC50 stands for the midpoint of the concentration-response curve. A lower EC50 goes with higher potency in that assay. As to `CC(C)CC(=O)O` [3MB, 3-methyl-butanoic acid], the half-maximal effective concentration (EC50) is 75.9 µM.
`CC(=O)O` [C2:0] gave an EC50 of 9770 µM.
As for `CCC(=O)O` [C3:0], the response was half-maximal at 977 µM (EC50).
The compound `CCCC(=O)O` [C4:0] showed a concentration giving a half-maximal response (EC50) of 129 µM.
`CCCCC(=O)O` [C5:0] showed an EC50 of 61.7 µM.
On the same count and under the same terms, with `CCCCCC(=O)O` [C6:0] the figure was 72.4 µM; with `CCCCCCC(=O)O` [C7:0], 126 µM.

The same assay, now with this note: partial agonist; AUC over 10 min; -log10 of EC50; unreliable (EC50 above the 1 mM dose of Figure 1).
In turn, `CCCCCCCC(=O)O` [C8:0] showed a mGαi recruitment of 2.57 ± 0.40.

The next assay deals with T1, bFFAR2 (bovine FFAR2/GPR43). Description: SRE luciferase reporter gene assay, HEK293A expressing bFFAR2. The format is cell-based.
Settings: not given
An excerpt:
SRE luciferase reporter gene assay, HEK293A expressing bFFAR2 on bFFAR2 (bovine FFAR2/GPR43)
In turn, `CC(C)C(=O)O` [2MP, 2-methyl-propanoic acid] gave an EC50 of 234 µM.
